Consider five molecules from patent publication US12595226B2, “Carbonate containing lipid compounds and compositions for intracellular delivery of therapeutic agents” (ModernaTX, Inc., priority 2019, dated 2026).

Structures are written as SMILES. Where only a bound is given, the exact number is not on record here.

The nature of the data set: Residual lipid levels in the liver of mice after LNP administration. The class given is in vivo, CD-1 mice. Particulars: calculation assumes a 25 g mouse with a 1.5 g liver, >95% equals very slowly metabolism of the lipid.
Take `CCCCCCCCC(CCCCCCCC)OC(=O)CCCCCCCN(CCCCCCOC(=O)OCCC(CCCCC)CCCCC)CCCNc1c(NC)c(=O)c1=O` [Compound 67, Heptadecan-9-yl 8-((3-((2-(methylamino)-3,4-dioxocyclobut-1-en-1-yl)amino)propyl)(6-((((3-pentyloctyl)oxy)carbonyl)oxy)hexyl)amino)octanoate]: the “Approx. Percent Total Dose of Parent Lipid Remaining at 24 h” value is above 95%.
For `CCCCCCCCC(CCCCCCCC)OC(=O)CCCCCCCN(CCO)CCCCCCOC(=O)OCCC(CCCCC)CCCCC` [Compound 64, Heptadecan-9-yl 8-((2-hydroxyethyl)(6-((((3-pentyloctyl)oxy)carbonyl)oxy)hexyl)amino)octanoate], the “Approx. Percent Total Dose of Parent Lipid Remaining at 24 h” value is recorded as 51%.
On to `CCCCCCCCC(CCCCCCCC)OC(=O)CCCCCCCN(CCO)CCCCCCOC(=O)OCCC(CCCCCC)CCCCCC` [Compound 66, Heptadecan-9-yl 8-((6-((((3-hexylnonyl)oxy)carbonyl)oxy)hexyl)(2-hydroxyethyl)amino)octanoate], for which the “Approx. Percent Total Dose of Parent Lipid Remaining at 24 h” value is given as 48%.
Take `CCCCCCCCC(CCCCCCCC)OC(=O)CCCCCCCN(CCCCCCOC(=O)OCCC(CCCCCC)CCCCCC)CCCNc1c(NC)c(=O)c1=O` [Compound 65, Heptadecan-9-yl 8-((6-((((3-hexylnonyl)oxy)carbonyl)oxy)hexyl)(3-((2-(methylamino)-3,4-dioxocyclobut-1-en-1-yl)amino)propyl)amino)octanoate]: the “Approx. Percent Total Dose of Parent Lipid Remaining at 24 h” value is above 95%.
On to `CCCCCCCCCOC(=O)OCCCCCCN(CCO)CCCCCCCC(=O)OC(CCCCCCCC)CCCCCCCC` [Compound 6, Heptadecan-9-yl 8-((2-hydroxyethyl)(6-(((nonyloxy)carbonyl)oxy)hexyl)amino)octanoate], for which the “Approx. Percent Total Dose of Parent Lipid Remaining at 24 h” value was 2%.
